Laboratory results reported in US20250002487A1, “HETEROCYCLIC COMPOUNDS AND USES THEREOF” (Ventus Therapeutics U.S., Inc., priority 2021, published 2025).

Molecular target: human-cGAS (h-cGAS) (Homo sapiens, UniProt Q8N884)
Assay: hcGAS Kinase-Glo Assay
Format: biochemical
Details: 40 nM h-cGAS, 100 μM ATP, 100 μM GTP, 25 nM dsDNA, 3 h incubation, read-out: hcGAS potency IC50
Outline: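 IC50 values come from a luminescence-based Kinase-Glo measurement on human cGAS. Conditions follow the Lama et al. 2019 method with minor modifications.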

Sequence of human-cGAS (h-cGAS) (Q8N884 whole entry): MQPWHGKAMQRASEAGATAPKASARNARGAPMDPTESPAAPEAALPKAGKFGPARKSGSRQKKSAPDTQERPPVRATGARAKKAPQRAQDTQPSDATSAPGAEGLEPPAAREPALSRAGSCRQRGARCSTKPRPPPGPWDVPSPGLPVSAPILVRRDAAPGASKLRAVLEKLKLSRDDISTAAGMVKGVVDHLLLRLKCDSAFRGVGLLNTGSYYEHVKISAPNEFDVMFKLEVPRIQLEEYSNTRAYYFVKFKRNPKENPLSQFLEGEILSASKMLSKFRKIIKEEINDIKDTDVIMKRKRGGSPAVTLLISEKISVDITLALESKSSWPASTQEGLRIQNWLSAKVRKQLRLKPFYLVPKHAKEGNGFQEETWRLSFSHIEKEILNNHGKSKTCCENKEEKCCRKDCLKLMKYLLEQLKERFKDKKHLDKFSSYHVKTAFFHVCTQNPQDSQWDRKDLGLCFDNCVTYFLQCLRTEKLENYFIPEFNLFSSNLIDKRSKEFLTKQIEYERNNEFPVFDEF

IC50 [nM]	Structure (SMILES)
≥ 1000	CSc1nnc(NC(=O)c2noc(N3CCCC(C)(C)C3)n2)s1 [Compound 100, 5-(3,3-dimethylpiperidin-1-yl)-N-(5-(methylthio)-1,3,4-thiadiazol-2-yl)-1,2,4-oxadiazole-3-carboxamide]
≥ 1000	Cc1cccc(-c2nnc(NC(=O)c3onc4ccccc34)s2)c1 [Compound 28, N-(5-(m-tolyl)-1,3,4-thiadiazol-2-yl)benzo[c]isoxazole-3-carboxamide]
500 to 1000	CSc1nnc(NC(=O)c2cc(-c3ccccc3)no2)s1 [Compound 208, N-[5-(methylsulfanyl)-1,3,4-thiadiazol-2-yl]-3-phenyl-1,2-oxazole-5-carboxamide]
≥ 1000	CCCc1nnc(NC(=O)c2onc3ccccc23)s1 [Compound 20, N-(5-propyl-1,3,4-thiadiazol-2-yl)benzo[c]isoxazole-3-carboxamide]
100 to 500	O=C(Nc1nnc(-c2ccccc2Cl)s1)c1c[nH]c(=O)o1 [Compound 61, N-(5-(2-chlorophenyl)-1,3,4-thiadiazol-2-yl)-2-oxo-2,3-dihydrooxazole-5-carboxamide]
500 to 1000	CSc1nnc(NC(=O)c2cc(-c3cccs3)no2)s1 [Compound 75, N-(5-(methylthio)-1,3,4-thiadiazol-2-yl)-3-(thiophen-2-yl)isoxazole-5-carboxamide]
500 to 1000	O=C(Nc1nnc(-c2cnccn2)s1)c1onc2ccccc12 [Compound 130, N-[5(pyrazin-2-yl)-1,3,4-thiadiazol-2-yl]-2,1-benzoxazole-3-carboxamide]
≥ 1000	CSc1nnc(NC(=O)c2nnn(Cc3cccnc3)n2)s1 [Compound 135, N-(5-(methylthio)-1,3,4-thiadiazol-2-yl)-2-(pyridin-3-ylmethyl)-2H-tetrazole-5-carboxamide]
500 to 1000	CSc1nnc(NC(=O)c2cc(-c3ccc(C)cc3)no2)s1 [Compound 215, 3-(4-methylphenyl)-N-[5-(methylsulfanyl)-1,3,4-thiadiazol-2-yl]-1,2-oxazole-5-carboxamide]
< 100	O=C(O)c1cc(C(=O)Nc2nnc(-c3ccccc3Cl)s2)on1 [Compound 2, 5-((5-(2-chlorophenyl)-1,3,4-thiadiazol-2-yl)carbamoyl)isoxazole-3-carboxylic acid]
100 to 500	CSc1nnc(NC(=O)c2cc(Nc3ccccc3)cc(=O)o2)s1 [Compound 268, N-(5-(methylthio)-1,3,4-thiadiazol-2-yl)-2-oxo-4-(phenylamino)-2H-pyran-6-carboxamide]
≥ 1000	CSc1nnc(NC(=O)c2onc3c2CCc2cnc(C)nc2-3)s1 [Compound 174, 8-Methyl-N-(5-(methylthio)-1,3,4-thiadiazol-2-yl)-4,5-dihydroisoxazolo[4,3-h]quinazoline-3-carboxamide]
500 to 1000	CSc1nnc(NC(=O)c2oncc2-c2ccccc2)s1 [Compound 232, N-[5-(methylsulfanyl)-1,3,4-thiadiazol-2-yl]-4-phenyl-1,2-oxazole-5-carboxamide]
≥ 1000	COc1cccc2c1CCc1c-2noc1C(=O)Nc1nnc(SC)s1 [Compound 172, 6-Methoxy-N-(5-(methylthio)-1,3,4-thiadiazol-2-yl)-4,5-dihydronaphtho[1,2-c]isoxazole-3-carboxamide]
100 to 500	O=C(Nc1nnc(-c2ccccc2Br)s1)c1onc2ccccc12 [Compound 144, N-[5-(2-bromophenyl)-1,3,4-thiadiazol-2-yl]-2,1-benzoxazole-3-carboxamide]
100 to 500	Cc1cnc(-c2cc(C(=O)Nc3nnc(-c4ccccc4Cl)s3)on2)nc1 [Compound 158, N-(5-(2-Chlorophenyl)-1,3,4-thiadiazol-2-yl)-3-(5-methylpyrimidin-2-yl)isoxazole-5-carboxamide]
100 to 500	CCc1cc(C(=O)Nc2nnc(-c3ccccc3Cl)s2)on1 [Compound 33, N-(5-(2-chlorophenyl)-1,3,4-thiadiazol-2-yl)-3-ethylisoxazole-5-carboxamide]
500 to 1000	O=C(Nc1nnc(-c2cscn2)s1)c1onc2ccccc12 [Compound 127, N-(5-(thiazol-4-yl)-1,3,4-thiadiazol-2-yl)benzo[c]isoxazole-3-carboxamide]
100 to 500	CSc1nnc(NC(=O)c2onc3cc(C)ccc23)s1 [Compound 221, 6-methyl-N-[5-(methylsulfanyl)-1,3,4-thiadiazol-2-yl]-2,1-benzoxazole-3-carboxamide]
100 to 500	O=C(Nc1nnc(-c2ccccc2Cl)s1)c1nnc(N2CCC[C@@H]2c2ccccc2)o1 [Compound 118, (R)-N-(5-(2-chlorophenyl)-1,3,4-thiadiazol-2-yl)-5-(2-phenylpyrrolidin-1-yl)-1,3,4-oxadiazole-2-carboxamide]
500 to 1000	CSc1nnc(NC(=O)c2onc3ccc(C)cc23)s1 [Compound 227, 5-methyl-N-[5-(methylsulfanyl)-1,3,4-thiadiazol-2-yl]-2,1-benzoxazole-3-carboxamide]
500 to 1000	CSc1nnc(NC(=O)c2noc(-c3ccccc3)n2)s1 [Compound 236, N-(5-methylsulfanyl-1,3,4-thiadiazol-2-yl)-5-phenyl-1,2,4-oxadiazole-3-carboxamide]

IC50 [nM]	Structure (SMILES)
500 to 1000	O=C(Nc1nnc(-c2ccccc2Cl)s1)c1cc(C(F)(F)F)no1 [Compound 34, N-(5-(2-chlorophenyl)-1,3,4-thiadiazol-2-yl)-3-(trifluoromethyl)isoxazole-5-carboxamide]
500 to 1000	CSc1nnc(NC(=O)c2nnn(-c3ccccc3F)n2)s1 [Compound 138, 2-(2-fluorophenyl)-N-[5-(methylsulfanyl)-1,3,4-thiadiazol-2-yl]-1,2,3,4-tetrazole-5-carboxamide]
100 to 500	CC(=O)Nc1cc(C(=O)Nc2nnc(-c3ccccc3Cl)s2)on1 [Compound 5, 3-acetamido-N-(5-(2-chlorophenyl)-1,3,4-thiadiazol-2-yl)isoxazole-5-carboxamide]
100 to 500	CSc1nnc(NC(=O)c2cc(-c3ccc4ccccc4n3)cc(=O)o2)s1 [Compound 254, N-(5-methylsulfanyl-1,3,4-thiadiazol-2-yl)-6-oxo-4-(2-quinolyl)pyran-2-carboxamide]
500 to 1000	CSc1nnc(NC(=O)c2cc(-c3ccc(Cl)cc3)no2)s1 [Compound 50, 3-(4-chlorophenyl)-N-(5-(methylthio)-1,3,4-thiadiazol-2-yl)isoxazole-5-carboxamide]
500 to 1000	CSc1nnc(NC(=O)c2cc(-c3ccccc3Cl)no2)s1 [Compound 216]
≥ 1000	CSc1nnc(NC(=O)c2nnc3ccccn23)s1 [Compound 260]
500 to 1000	CSc1nnc(NC(=O)c2nnc(Cc3ccccc3Cl)o2)s1 [Compound 49, 5-(2-chlorobenzyl)-N-(5-(methylthio)-1,3,4-thiadiazol-2-yl)-1,3,4-oxdiazole-2-carboxamide]
500 to 1000	CSc1nnc(NC(=O)c2onc3c2CCCC3)s1 [Compound 67, N-(5-(methylthio)-1,3,4-thiadiazol-2-yl)-4,5,6,7-tetrahydrobenzo[c]isoxazole-3-carboxamide]
500 to 1000	Cc1nnc(NC(=O)c2onc3c2ccc2cccnc23)s1 [Compound 93, N-(5-methyl-1,3,4-thiadiazol-2-yl)isoxazolo[4,3-h]quinoline-3-carboxamide]
100 to 500	CSc1nsc(NC(=O)c2onc3c2ccc2cccnc23)n1 [Compound 11, N-(3-(methylthio)-1,2,4-thiadiazol-5-yl)isoxazolo[4,3-h]quinoline-3-carboxamide]
< 100	N#Cc1cc(C(=O)Nc2nnc(-c3ccccc3Cl)s2)on1 [Compound 37, N-(5-(2-chlorophenyl)-1,3,4-thiadiazol-2-yl)-3-cyanoisoxazole-5-carboxamide]
500 to 1000	CSc1nnc(NC(=O)c2nnc(N3CCCCC3)o2)s1 [Compound 108, N-(5-(methylthio)-1,3,4-thiadiazol-2-yl)-5-(piperidin-1-yl)-1,3,4-oxadiazole-2-carboxamide]
500 to 1000	CSc1nnc(NC(=O)c2nnc(Cc3ccccc3)o2)s1 [Compound 259, 5-benzyl-N-(5-methylsulfanyl-1,3,4-thiadiazol-2-yl)-1,3,4-oxadiazole-2-carboxamide]
100 to 500	O=C(Nc1nnc(-c2ccccc2Cl)s1)c1cc(CCO)no1 [Compound 179, N-(5-(2-chlorophenyl)-1,3,4-thiadiazol-2-yl)-3-(2-hydroxyethyl)isoxazole-5-carboxamide]
≥ 1000	CSc1nnc(NC(=O)c2cnc(-c3cccs3)s2)s1 [Compound 76, N-(5-(methylthio)-1,3,4-thiadiazol-2-yl)-2-(thiophen-2-yl)thiazole-5-carboxamide]
100 to 500	CSc1nnc(NC(=O)c2cc(-c3c(F)cccc3F)no2)s1 [Compound 46, 3-(2,6-difluorophenyl)-N-(5-(methylthio)-1,3,4-thiadiazol-2-yl)isoxazole-5-carboxamide]
100 to 500	O=C(Nc1ccccc1)c1cc(C(=O)Nc2nnc(-c3ccccc3Cl)s2)on1 [Compound 92, N5-(5-(2-chlorophenyl)-1,3,4-thiadiazol-2-yl)-N3-phenylisoxazole-3,5-dicarboxamide]
≥ 1000	Cc1ccc(-c2nnc(NC(=O)c3onc4ccccc34)s2)cc1 [Compound 29, N-(5-(p-tolyl)-1,3,4-thiadiazol-2-yl)benzo[c]isoxazole-3-carboxamide]
100 to 500	O=C(Nc1nnc(-c2ccccc2Cl)s1)c1ccc(O)nn1 [Compound 56, N-(5-(2-chlorophenyl)-1,3,4-thiadiazol-2-yl)-6-hydroxypyridazine-3-carboxamide]
≥ 1000	CSc1nnc(NC(=O)c2nnc(N3CCC3c3ccccc3)o2)s1 (centres unmarked) [Compound 74, N-(5-(methylthio)-1,3,4-thiadiazol-2-yl)-5-(2-phenylazetidin-1-yl)-1,3,4-oxadiazole-2-carboxamide]
100 to 500	Cc1c(-c2cc(C(=O)Nc3nnc(-c4ccccc4Cl)s3)on2)cnn1C [Compound 53, N-(5-(2-chlorophenyl)-1,3,4-thiadiazol-2-yl)-3-(1,5-dimethyl-1H-pyrazol-4-yl)isoxazole-5-carboxamide]
